Calls of active or inactive are those of the source. The calls are words filed in the database; no cut-off is given here.
How the values were obtained:
MCF7 [1] = experiment: cells; conditions: Homo sapiens, MCF7, light or radiation study
Description: Antiproliferative activity against human MCF7 cells assessed as inhibition of cell proliferation incubated for 48 hrs with 660 nm 0.4 W/cm2 light irradiation for 2 min at 6th hr of incubation time by MTT assay

MCF7 [2] = experiment: cells; conditions: Homo sapiens, MCF7, light or radiation study; remark: listed apart in the source
Description: Antiproliferative activity against human MCF7 cells assessed as inhibition of cell proliferation incubated for 48 hrs with 660 nm 0.4 W/cm2 light irradiation for 4 min at 6th hr of incubation time by MTT assay

MCF7 [3] = experiment: cells; conditions: Homo sapiens, MCF7, 48 h
Description: Antiproliferative activity against human MCF7 cells assessed as inhibition of cell proliferation incubated for 48 hrs by MTT assay

MCF7 [4] = experiment: cells; conditions: Homo sapiens, MCF7, light or radiation study; remark: listed apart in the source
Description: Antiproliferative activity against human MCF7 cells assessed as inhibition of cell proliferation incubated for 48 hrs with 660 nm 0.4 W/cm2 light irradiation for 5 min at 6th hr of incubation time by MTT assay

MCF7 [5] = experiment: cells; conditions: Homo sapiens, MCF7, light or radiation study; remark: listed apart in the source
Description: Antiproliferative activity against human MCF7 cells assessed as inhibition of cell proliferation incubated for 48 hrs with 660 nm 0.4 W/cm2 light irradiation for 1 min at 6th hr of incubation time by MTT assay

MCF7 [6] = experiment: cells; conditions: Homo sapiens, MCF7, light or radiation study; remark: listed apart in the source
Description: Antiproliferative activity against human MCF7 cells assessed as inhibition of cell proliferation incubated for 48 hrs with 660 nm 0.4 W/cm2 light irradiation for 3 min at 6th hr of incubation time by MTT assay

[7] = Toxicity in female BALB/c mouse xenografted with human MCF7 cells assessed as change in body weight at 5 mg/kg, iv measured after 14 days; format: organism-based; conditions: in vivo, 336 h, time 14 day
[8] = Toxicity in female BALB/c mouse xenografted with human MCF7 cells assessed as change in blood urea nitrogen level at 5 mg/kg, iv measured after 14 days; format: organism-based; conditions: in vivo, 336 h, time 14 day
MCF7 [9] = experiment: Antitumor activity against human MCF7 cells xenografted in female BALB/c mouse model assessed as tumor growth inhibition at 5 mg/kg, iv measured after 14 days relative to control; format: functional; conditions: MCF7, 336 h, time 14 day, read-out: TGI
[10] = Toxicity in female BALB/c mouse xenografted with human MCF7 cells assessed as change in creatinine level at 5 mg/kg, iv measured after 14 days; format: organism-based; conditions: in vivo, 336 h, time 14 day
[11] = Toxicity in female BALB/c mouse xenografted with human MCF7 cells assessed as change in ALT level at 5 mg/kg, iv measured after 14 days; format: organism-based; conditions: in vivo, 336 h, time 14 day
[12] = Toxicity in female BALB/c mouse xenografted with human MCF7 cells assessed as change in AST level at 5 mg/kg, iv measured after 14 days; format: organism-based; conditions: in vivo, 336 h, time 14 day
[13] = Induction of ROS generation in water at 1 uM irradiated with 660 nm 0.4 W/cm2 light up to 180 sec by DCFH probe based fluorescence spectra analysis; format: functional
MCF7 [14] = experiment: Induction of ROS generation in human MCF7 cells assessed as cell percentage with elevated ROS at 1 uM incubated for 6 hrs followed by irradiation with 660 nm 0.4 W/cm2 light for 2 min by DCFH-DA probe based flow cytometric analysis (reference value: 0.2 %); format: functional; conditions: time 362 min, 6.033 h
[15] = Induction of ROS generation in water assessed as decrease in ABDA absorption peak at 5 uM irradiated with 660 nm 0.4 W/cm2 light up to 5 mins by ABDA probe based UV-vis absorption spectra analysis; format: functional
[16] = Photothermal effect of compound in water assessed as increase in solution temperature measured up to 5 mins in presence of 660 nm 0.4 W/cm2 light irradiation; format: functional; conditions: dose 0.5-10 µM
[17] = Photothermal effect of compound in water assessed as increase in solution temperature at 0.5 to 10 uM in presence of 660 nm 0.4 W/cm2 light irradiation; format: functional; conditions: dose 0.5-10 µM, time <= 5.0 min
in vivo [18] = conditions: Sprague-Dawley, rat, po, 15 mg/kg
Description: Tmax in Sprague-Dawley rat at 15 mg/kg, po administered via gavage and measured after 0.5 to 168 hrs by LC-MS analysis

in vivo [19] = conditions: Sprague-Dawley, rat, po, 15 mg/kg; remark: listed apart in the source
Description: AUC (0 to infinity) in Sprague-Dawley rat at 15 mg/kg, po administered via gavage and measured after 0.5 to 168 hrs by LC-MS analysis

in vivo [20] = conditions: Sprague-Dawley, rat, po, 15 mg/kg; remark: listed apart in the source
Description: Cmax in Sprague-Dawley rat at 15 mg/kg, po administered via gavage and measured after 0.5 to 168 hrs by LC-MS analysis

in vivo [21] = conditions: Sprague-Dawley, rat, iv, 5 mg/kg
Description: Cmax in Sprague-Dawley rat at 5 mg/kg, iv measured after 0.5 to 168 hrs by LC-MS analysis

in vivo [22] = conditions: Sprague-Dawley, rat, iv, 5 mg/kg; remark: listed apart in the source
Description: AUC (0 to infinity) in Sprague-Dawley rat at 5 mg/kg, iv measured after 0.5 to 168 hrs by LC-MS analysis

in vivo [23] = conditions: Sprague-Dawley, rat, iv, 5 mg/kg; remark: listed apart in the source
Description: Volume of distribution at steady state in Sprague-Dawley rat at 5 mg/kg, iv measured after 0.5 to 168 hrs by LC-MS analysis

Question: Which results are given for `CN(C)c1ccc2nc3ccc(N(C)C)cc3[s+]c2c1` [METHYLENE BLUE ANHYDROUS]?
Answer: IC50 (MCF7 [1]): > 100 µM; IC50 (MCF7 [2]): 6.76 µM; IC50 (MCF7 [3]): > 100 µM; IC50 (MCF7 [4]): 5.53 µM; IC50 (MCF7 [5]): > 100 µM; IC50 (MCF7 [6]): 14.1 µM

Question: Which Activity [7] does the source give for `C[C@]12CC[C@@H]3c4ccc(O)cc4C[C@@H](CCCCCCCCC[S+]([O-])CCCC(F)(F)C(F)(F)F)[C@H]3[C@@H]1CC[C@@H]2O` (some centres undefined) [FULVESTRANT] here?
Answer: Non-toxic

Question: What about the Activity [8] of the same molecule?
Answer: Non-toxic

Question: What about the inhibition in vivo at 5 mg/kg (MCF7 [9]) of the same molecule?
Answer: 95.4%

Question: What about the Activity [10] of the same molecule?
Answer: Non-toxic

Question: What about the Activity [11] of the same molecule?
Answer: Non-toxic

Question: What about the Activity [12] of the same molecule?
Answer: Non-toxic

Question: For `CCN(CC)c1ccc2nc3c4ccccc4/c(=N\CCCCC(=O)NCCCOc4ccc(C(=O)c5c(-c6ccc(O)cc6)sc6cc(O)ccc56)cc4)cc-3sc2c1`, which IC50 (MCF7 [1]) is on record?
Answer: 0.93 µM

Question: What about the IC50 (MCF7 [2]) of the same molecule?
Answer: 0.38 µM

Question: And the Activity [13]?
Answer: Active

Question: And the Activity (MCF7 [14])?
Answer: 4.8%

Question: And the Activity [15]?
Answer: Active

Question: And the IC50 (MCF7 [3])?
Answer: > 100 µM

Question: And the IC50 (MCF7 [4])?
Answer: 0.33 µM

Question: And the IC50 (MCF7 [5])?
Answer: 4.67 µM

Question: And the IC50 (MCF7 [6])?
Answer: 0.72 µM

Question: For `O=C(c1ccc(OCCN2CCCCC2)cc1)c1c(-c2ccc(O)cc2)sc2cc(O)ccc12` [RALOXIFENE], which IC50 (MCF7 [3]) is on record?
Answer: 6.7 µM

Question: Which IC50 (MCF7 [1]) does the source give for `CCN(CC)c1ccc2nc3c4ccccc4/c(=N\CCC(=O)NCCCOc4ccc(C(=O)c5c(-c6ccc(O)cc6)sc6cc(O)ccc56)cc4)cc-3sc2c1` here?
Answer: 3.85 µM

Question: What about the Activity [16] of the same molecule?
Answer: Dose-dependent-effect

Question: And the IC50 (MCF7 [2])?
Answer: 1.34 µM

Question: And the Activity [13]?
Answer: Active

Question: And the Activity [17]?
Answer: Time-dependent-effect

Question: And the Activity (MCF7 [14])?
Answer: 4.2%

Question: And the Activity [15]?
Answer: Active

Question: What about the IC50 (MCF7 [3]) of the same molecule?
Answer: > 100 µM

Question: What about the IC50 (MCF7 [4]) of the same molecule?
Answer: 0.63 µM

Question: And the IC50 (MCF7 [5])?
Answer: 5.53 µM

Question: And the IC50 (MCF7 [6])?
Answer: 1.78 µM

Question: Which Tmax (in vivo [18]) does the source give for `CC/C(=C(\c1ccccc1)c1ccc(OCCN(C)C)cc1)c1ccccc1` [TAMOXIFEN] here?
Answer: 16 h

Question: What about the AUC(0-inf) (in vivo [19]) of the same molecule?
Answer: 311 ng·h/mL

Question: What about the Cmax (in vivo [20]) of the same molecule?
Answer: 11.7 ng/mL

Question: And the Cmax (in vivo [21])?
Answer: 15.9 ng/mL

Question: What about the AUC(0-inf) (in vivo [22]) of the same molecule?
Answer: 295 ng·h/mL

Question: And the Vd (in vivo [23])?
Answer: 221 L/kg

Reference: ChEMBL document CHEMBL6134865, “Rational Design of Methylene Blue-Raloxifene Conjugates for Efficient Breast Tumor Elimination Triggered by ERα Degradation” (J Med Chem, 2025)
